Test results taken from publication PMC10056611, “Synthesis and Biological Evaluation of 3-Amino-4,4-Dimethyl Lithocholic Acid Derivatives as Novel, Selective, and Cellularly Active Allosteric SHP1 Activators” (Molecules, 2023).

Legend:
SHP1 = SHP1 (Homo sapiens, UniProt P29350); test: SHP1 enzyme assay (DiFMUP fluorogenic substrate), activation; assay type: biochemical; conditions: for EC50 / Maximum Activation Fold: DiFMUP assay, mean ± SEM
Source text: The SHP1-activating effects of the synthetic compounds were examined by the 6,8-difluoro-4-methylumbelliferyl phosphate (DiFMUP) assay.
(§1) The proteins SHP1 and SHP2, containing a GST-tag, were expressed in E. coli. 6,8-Difluoro-4-methylumbelliferyl phosphate (DiFMUP) was used as the fluorogenic substrate. Fluorescence data were collected by the Envision (PerkinElmer, Waltham, MA, USA) plate reader, using excitation and emission wavelengths of 358 and 455 nm, respectively. A sigmoidal dose-response curve was fitted to the data, and the EC50 values were calculated using GraphPad Prism. In the data processing, the fitting and curves were calculated using nonlinear regression, and the fold value of the compound was calculated using the software GraphPad Prism 8. The folds were obtained according to the equation: Y = Bottom + (Top-Bottom)/(1 + 10^((LogEC50-X) × HillSlope)). The data represent mean values ± standard error of the mean (SEM) of eight-point experiments, each performed in triplicates from three independent experiments.

[1] = system: acute promyelocytic leukemia (APL) cell line NB4; test: CCK8 cell viability assay, NB4; assay type: cell-based; conditions: Homo sapiens, NB-4, NB4 cells, 72 h
Protocol: (§2) Acute lymphoblastic leukemia (ALL) cell line RS4;11 (2.5 × 10^4 cells per well), acute promyelocytic leukemia (APL) cell line NB4 (1 × 10^4 cells per well), and non-small cell lung cancer (NSCLC) cell line NCI-H1299 (1.5 × 10^3 cells per well) were seeded into 96-well plates. After treatment with different concentrations of drugs, the cells were incubated in quadruple for 72 h. Thereafter, a 10 μL CCK8 solution was added to each well. After a 3 h incubation at 37 °C, the plates were read for absorbance at 450 nm and 650 nm using a SpectraMax Molecular Devices microplate reader. The final data were calibrated by OD450 nm-OD650 nm. The inhibition rates of proliferation were calculated with the following equation:Inhibition ratio = (ODDMSO-ODCompd)/(ODDMSO-ODblank) × 100%.(1)
(§3) The concentrations of the compounds that inhibited cell growth by 50% (IC50) were calculated using GraphPad Prism version 5.0. NVP-2 was used as a positive control.

SHP2 = target: T1, SHP2 (Homo sapiens, UniProt Q06124); test: SHP2 enzyme assay (DiFMUP fluorogenic substrate), activation; assay type: biochemical
T1 sequence (Q06124 1-593): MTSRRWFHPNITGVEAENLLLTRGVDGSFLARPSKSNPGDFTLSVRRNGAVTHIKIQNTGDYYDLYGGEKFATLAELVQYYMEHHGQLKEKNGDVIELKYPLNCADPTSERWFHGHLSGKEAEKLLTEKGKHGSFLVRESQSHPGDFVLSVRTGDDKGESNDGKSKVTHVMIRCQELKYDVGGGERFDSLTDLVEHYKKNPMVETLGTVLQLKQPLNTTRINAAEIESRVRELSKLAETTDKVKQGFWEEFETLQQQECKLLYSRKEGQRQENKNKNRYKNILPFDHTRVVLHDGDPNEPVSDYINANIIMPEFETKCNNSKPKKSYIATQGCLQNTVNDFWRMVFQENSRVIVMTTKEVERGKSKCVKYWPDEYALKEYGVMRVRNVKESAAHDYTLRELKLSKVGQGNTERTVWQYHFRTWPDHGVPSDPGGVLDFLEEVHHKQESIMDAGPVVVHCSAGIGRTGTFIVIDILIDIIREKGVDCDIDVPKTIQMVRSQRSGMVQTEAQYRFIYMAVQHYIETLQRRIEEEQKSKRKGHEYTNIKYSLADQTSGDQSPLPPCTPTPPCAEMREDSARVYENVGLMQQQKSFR
Protocol: as §1

[2] = system: non-small cell lung cancer (NSCLC) cell line NCI-H1299; test: CCK8 cell viability assay, NCI-H1299; assay type: cell-based; conditions: Homo sapiens, NCI-H1299 cells, 72 h
Protocol: as §2, §3

[3] = system: acute lymphoblastic leukemia (ALL) cell line RS4;11; test: CCK8 cell viability assay, RS4;11; assay type: cell-based; conditions: Homo sapiens, RS4-11, 72 h, RS4;11 cells
Protocol: as §2, §3

Chain of SHP1 (P29350 whole entry): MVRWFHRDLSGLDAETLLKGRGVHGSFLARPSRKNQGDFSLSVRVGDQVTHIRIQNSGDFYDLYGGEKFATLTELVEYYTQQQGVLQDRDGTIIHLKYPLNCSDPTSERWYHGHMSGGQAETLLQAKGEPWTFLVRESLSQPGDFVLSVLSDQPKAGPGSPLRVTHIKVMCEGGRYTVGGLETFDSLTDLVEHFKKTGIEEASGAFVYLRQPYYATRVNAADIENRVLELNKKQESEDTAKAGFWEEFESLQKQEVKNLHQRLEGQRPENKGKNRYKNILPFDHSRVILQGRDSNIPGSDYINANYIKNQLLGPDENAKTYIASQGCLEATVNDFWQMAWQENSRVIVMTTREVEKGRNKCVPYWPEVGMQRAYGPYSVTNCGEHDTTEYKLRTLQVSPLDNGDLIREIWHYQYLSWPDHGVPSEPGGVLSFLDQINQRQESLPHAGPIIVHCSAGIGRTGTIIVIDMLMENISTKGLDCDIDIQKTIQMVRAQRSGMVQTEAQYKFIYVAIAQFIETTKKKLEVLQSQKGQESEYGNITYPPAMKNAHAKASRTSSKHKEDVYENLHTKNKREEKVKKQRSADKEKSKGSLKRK

| Structure (SMILES) | melting point | EC50 (SHP1) | Maximum Activation Fold (SHP1) | other results |
| --- | --- | --- | --- | --- |
| CC(C)C(O)CC[C@@H](C)[C@H]1CCC2C3CC=C4C(C)(C)C(N)CC[C@]4(C)C3CC[C@@]21C (stereo partly drawn) [Compound 5aq, (6R)-6-((10R,13R,17R)-3-amino-4,4,10,13-tetramethyl-tetradecahydro-1H-cyclopenta[a]phenanthren-17-yl)-2-methylheptan-3-ol] | > 300 °C | 22.1 ± 3.73 µM | 6.32 ± 0.34 fold | – |
| C[C@H](CCCO)[C@H]1CCC2C3C(N)C=C4C(C)(C)C(N)CC[C@]4(C)C3CC[C@@]21C (stereo partly shown) [Compound 5aj] | 178.7 to 180.2 °C | > 50 µM | – | – |
| CCC(O)(CC)CC[C@@H](C)[C@H]1CCC2C3CC=C4C(C)(C)C(N)CC[C@]4(C)C3CC[C@@]21C (stereo partly shown) [Compound 5at] | > 300 °C | 12.9 ± 0.3 µM | 6.50 ± 0.12 fold | – |
| C[C@H](CCCO)[C@H]1CCC2C3CC=C4C(C)(C)C(NCCCO)CC[C@]4(C)C3CC[C@@]21C (stereo partly shown) [Compound 5ac] | 183.5 to 186.8 °C | 30.7 ± 3.8 µM | – | – |
| CCCNCCC[C@@H](C)[C@H]1CCC2C3CC=C4C(C)(C)C(N)CC[C@]4(C)C3CC[C@@]21C (stereo partly drawn) [Compound 5am, (10R,13R,17R)-4,4,10,13-tetramethyl-17-((R)-5-(propylamino)pentan-2-yl)-tetradecahydro-1H-cyclopenta[a]phenanthren-3-amine] | > 300 °C | > 50 µM | – | – |
| C[C@H](CCCO)[C@H]1CCC2C3C(=NO)C=C4C(C)(C)C(N)CC[C@]4(C)C3CC[C@@]21C (stereo partly drawn) [Compound 5ah, (10R,13R,17R)-3-amino-17-((R)-5-hydroxypentan-2-yl)-4,4,10,13-tetramethyl-tetradecahydro-7H-cyclopenta[a]phenanthren-7-oxime] | 218.3 to 219.9 °C | 34.4 ± 2.47 µM | 2.13 ± 0.28 fold | – |
| CCCNC1CC[C@@]2(C)C(=CCC3C2CC[C@@]2(C)C3CC[C@@H]2[C@H](C)CCCO)C1(C)C (stereo partly drawn) [Compound 5ae, (4R)-4-((10R,13R,17R)-4,4,10,13-tetramethyl-3-(propylamino)-tetradecahydro-1H-cyclopenta[a]phenanthren-17-yl)pentan-1-ol] | 147.5 to 150.4 °C | > 50 µM | – | – |
| C[C@H](CCCO)[C@H]1CCC2C3C(=O)C=C4C(C)(C)C(N)CC[C@]4(C)C3CC[C@@]21C (stereo partly drawn) [Compound 5ag, (10R,13R,17R)-3-amino-17-((R)-5-hydroxypentan-2-yl)-4,4,10,13-tetramethyl-tetradecahydro-7H-cyclopenta[a]phenanthren-7-one] | 151.3 to 153.7 °C | 33.8 ± 2.93 µM | 1.84 ± 0.11 fold | – |
| C[C@H](CCCOc1ccc(NC(=O)Nc2ccc(Cl)c(C(F)(F)F)c2)cc1)[C@H]1CCC2C3CC=C4C(C)(C)C(N)CC[C@]4(C)C3CC[C@@]21C (stereo partly shown) [Compound 5ay] | 192.3 to 194.5 °C | 2.05 ± 0.14 µM | 5.54 ± 0.24 fold | – |
| C[C@H](COc1ccc(NC(=O)Nc2ccc(Cl)c(C(F)(F)F)c2)cc1)[C@H]1CCC2C3CC=C4C(C)(C)C(N)CC[C@]4(C)C3CC[C@@]21C (stereo partly shown) [Compound 5ba] | 197.1 to 198.6 °C | 1.54 ± 0.24 µM | 7.63 ± 0.20 fold | IC50 [1]: 3.74 ± 0.39 µM; EC50 (SHP2; DiFMUP assay): > 50 µM; selectivity for SHP1 over SHP2 (SHP2; ratio of EC50 values, SHP2 vs SHP1): more than 32 fold; IC50 [2]: 5.51 ± 0.23 µM; increase in potency compared to 5aw (SHP1; SHP1 EC50 ratio vs 5aw): ~23 times; IC50 [3]: 4 ± 0.22 µM |
| CNC(=O)CC[C@@H](C)[C@H]1CCC2C3CC=C4C(C)(C)C(N)CC[C@]4(C)C3CC[C@@]21C (stereo partly shown) [Compound 5al] | > 300 °C | 40.5 ± 6.58 µM | 6.42 ± 0.28 fold | – |
| C[C@H](CCCO)[C@H]1CCC2C3CC=C4C(C)(C)C(N5CCC5)CC[C@]4(C)C3CC[C@@]21C (stereo partly shown) [Compound 5af] | 174.9 to 177.6 °C | > 50 µM | – | – |
| C[C@H](CCC(C)(C)O)[C@H]1CCC2C3CC=C4C(C)(C)C(N)CC[C@]4(C)C3CC[C@@]21C (stereo partly drawn) [Compound 5as, (5R)-5-((10R,13R,17R)-3-amino-4,4,10,13-tetramethyl-tetradecahydro-1H-cyclopenta[a]phenanthren-17-yl)-2-methylhexan-2-ol] | 215.2 to 217.6 °C | 22 ± 3.84 µM | 5.73 ± 0.32 fold | – |
